Results: US10413559B2, “Method for treating demyelinating disease” (OCHANOMIZU UNIVERSITY, priority 2013, dated 2019)

Assays:
[1] = system: demyelination model mice (0.2% cuprizone); assay: Myelin level by Black Gold staining in cuprizone demyelination model mice (Example 1); format: in vivo, C57BL/6 mice; details: intraperitoneal 40 μg/200 μl saline/day for 5 weeks, FIG. 2
Description: 10-week-old male C57BL/6 mice were fed with a mash feed containing 0.2% cuprizone for five weeks until the most significant demyelination occurred, so as to produce demyelination model mice. cPA and carba-cPA (cPA) powders were each dissolved in a saline, and the obtained solutions were each administered intraperitoneally at a dose of 40 μg/200 μl saline/day to the mice every day for 5 weeks. On the other hand, to negative control mice, a saline (200 μl/day) was intraperitoneally administered in the same manner as described above. The mice, to which the test compound had been administered, were subjected to perfusion fixation with 4% paraformaldehyde, and sections to be used for frozen tissue staining (30 μm) were then prepared in a cryostat (FIG. 1). The level of myelin in each mouse was measured by Black Gold staining, and the demyelination level was then measured based on the stained level (FIG. 2).

[2] = system: demyelination model mice (0.2% cuprizone), corpus callosum; assay: Histological staining (Black Gold II) of corpus callosum and evaluation of demyelination (Example 2); format: in vivo, C57BL/6j mice; details: intraperitoneal 1.6 mg/kg/day for 5 weeks, FIG. 3, FIG. 4
Excerpt: 10-week-old male C57BL/6j mice (Tokyo Laboratory Animals Science Co., Ltd., Tokyo, Japan) were fed by the discretionary intake of a mash feed (CLEA Japan, Inc.) that contained 0.2% cuprizone (biscyclohexanone oxalyl hydrazone; Merck KGaA, Darmstadt, Germany) for 5 weeks until demyelination progressed most, so as to produce demyelination model mice involving demyelination caused by oligodendrocyte-specific cell death. To obtain tissues to be used for histological analysis, a mouse was subjected to perfusion fixation through the heart with 4% paraformaldehyde, and the resulting brain tissues were then excised from the mouse. Thereafter, the tissues were immobilized and infiltrated with 30% sucrose. Thereafter, a frozen tissue block was prepared and was then sliced in a cryostat. The cPA used in the experiment was the same cPA (16:0) as that used in Example 1, and the carba-cPA was 2 ccPA (16:1). The cPA and 2 ccPA were chemically purified (Biochimica et Biophysica Acta, Emi Nozaki 2011), and were then dissolved in a 0.9% saline. […] For the analysis of the level of myelin, using Image J 1.46r software, the stained level in the corpus callosum area was measured, and the demyelination level was then evaluated, while setting the control as 100%.

[3] = system: demyelination model mice (0.2% cuprizone), corpus callosum; assay: Electron microscope observation of myelin structure in corpus callosum; format: in vivo, C57BL/6j mice; details: intraperitoneal 1.6 mg/kg/day for 5 weeks, FIG. 5
Excerpt: 10-week-old male C57BL/6j mice (Tokyo Laboratory Animals Science Co., Ltd., Tokyo, Japan) were fed by the discretionary intake of a mash feed (CLEA Japan, Inc.) that contained 0.2% cuprizone (biscyclohexanone oxalyl hydrazone; Merck KGaA, Darmstadt, Germany) for 5 weeks until demyelination progressed most, so as to produce demyelination model mice involving demyelination caused by oligodendrocyte-specific cell death.
The cPA used in the experiment was the same cPA (16:0) as that used in Example 1, and the carba-cPA was 2 ccPA (16:1). The cPA and 2 ccPA were chemically purified (Biochimica et Biophysica Acta, Emi Nozaki 2011), and were then dissolved in a 0.9% saline. The cPA and 2 ccPA were continuously administered to mice via intraperitoneal administration for 5 weeks (1.6 mg/kg/day), at the same time with administration of cuprizone. Control mice were fed with a normal mash feed, and a normal saline was continuously administered to the control mice via intraperitoneal administration for 5 weeks.
Five weeks after administration of cuprizone, mice were subjected to perfusion fixation with 4% paraformaldehyde, and the brain was then collected from each mouse. Thereafter, corpus callosum tissues were removed from the brain, were then pre-fixed with 2.5% glutaraldehyde fixative, and were then washed with a 0.1 M cacodylate buffer. […]

For `CCCCCCCCCCCCCCCC(=O)OCC1COP(=O)(O)O1` (stereo not drawn) [cPA], the “level of myelin (Black Gold staining) versus control mouse” value [1] was “higher than the level of myelin in a control mouse”, the “demyelination level in corpus callosum (Black Gold II staining)” value [2] was “demyelination is suppressed” and the “demyelination by electron microscope observation of myelin structure” value [3] was “demyelination is suppressed”.
